From patent US20260317706A1, “COMPOSITION FOR INDUCING STEM CELLS TO DIFFERENTIATE INTO ASTROCYTES, CONTAINING CPI-455” (CHUNG ANG UNIVERSITY INDUSTRY ACADEMIC COOPERATION …, priority 2023, published 2026)

Assays:
Format in all cases: cell-based, Sprague-Dawley rat
GFAP = assay: Western blot of TUBB3, GFAP and OLIG2 in differentiating neural stem cells; settings: NSCs without EGF and FGF2, 4 days, vs 0.1% DMSO, FIG. 1A
Method: (§1) Neural stem cells (NSCs) were cultured and harvested as previously reported (Faseb J 2018, 32 (2), 1108-1119). Specifically, the cells were harvested by dissecting the cerebral cortex from embryos of 14-day pregnant Sprague-Dawley rats (Orient Bio, Seongnam, South Korea). The cells were incubated for 6 days at 37° C. in 5% CO2 in Dulbecco's modified Eagle's medium (DMEM/F12) (Cat no. 12500-062, Gibco, Grand Island, NY, U.S.A.) containing Ham's nutrient mixture F-12 supplemented with 1% antibiotic-antimycotic (Cat no. 15240-062, Gibco), 2% B-27 supplement (Cat no. 17504-044, Gibco), 20 ng/ml EGF (Cat no. GF144, Chemicon, Burlington, MA, U.S.A.), and 20 ng/ml FGF2 (Cat no. GF003AF, Chemicon), so as to form neurospheres. The neurospheres were then dissociated into single cells using Accutase (Cat No. SCR005, Sigma-Aldrich, St. Louis, MO, U.S.A.). The cells were then attached to culture plates for one day in medium enriched with EGF and FGF2. […]
(§2) Chemiluminescence was detected on CP-BU new film (Agfa, Mortsel, Belgium) using western blotting luminol reagent (Cat no. sc-2048, Santa Cruz Biotechnology). Band intensity was quantified using ImageJ version 2.3.0. GAPDH (Glyceraldehyde-3-phosphate dehydrogenase) was measured as a housekeeping protein. […]

TUBB3 = assay: Western blot of TUBB3 in differentiating neural stem cells; settings: NSCs without EGF and FGF2, 4 days, vs 0.1% DMSO, FIG. 1A
Method: as §1, §2

OLIG2 = assay: Western blot of OLIG2 in differentiating neural stem cells; settings: NSCs without EGF and FGF2, 4 days, vs 0.1% DMSO, FIG. 1A
Method: as §1, §2

gfap mRNA = assay: RT-qPCR of gfap mRNA in differentiating neural stem cells; settings: 50 μM, 3 days without EGF and FGF2, vs 0.1% DMSO, FIG. 1B
Method: as §1
(§3) RNA was extracted using TRIzol® reagent (Cat no. 15596018, Thermo Fisher, Waltham, MA, U.S.A.) and dissolved in diethylpyrocarbonate-treated water (Cat no. C-9030, Bioneer, Daejeon, South Korea). Complementary DNA (cDNA) was synthesized from 1 μg of RNA per sample using a QuantiTect reverse transcriptase kit (Cat no. 205311, Qiagen, Hilden, Germany). […]

neural stem cells (NSCs) = assay: Immunocytochemistry (ICC) of differentiating neural stem cells
Method: Neural stem cells (NSCs) were cultured and harvested as previously reported (Faseb J 2018, 32 (2), 1108-1119). Specifically, the cells were harvested by dissecting the cerebral cortex from embryos of 14-day pregnant Sprague-Dawley rats (Orient Bio, Seongnam, South Korea). The cells were incubated for 6 days at 37° C. in 5% CO2 in Dulbecco's modified Eagle's medium (DMEM/F12) (Cat no. 12500-062, Gibco, Grand Island, NY, U.S.A.) containing Ham's nutrient mixture F-12 supplemented with 1% antibiotic-antimycotic (Cat no. 15240-062, Gibco), 2% B-27 supplement (Cat no. 17504-044, Gibco), 20 ng/ml EGF (Cat no. GF144, Chemicon, Burlington, MA, U.S.A.), and 20 ng/ml FGF2 (Cat no. GF003AF, Chemicon), so as to form neurospheres. The neurospheres were then dissociated into single cells using Accutase (Cat No. SCR005, Sigma-Aldrich, St. Louis, MO, U.S.A.). The cells were then attached to culture plates for one day in medium enriched with EGF and FGF2. Next, the NSCs were treated with DMEM/F12 medium containing 1% antibiotic-antimycotic, 2% B-27 supplement, and either DMSO (Cat no. 472301, Sigma-Aldrich) or various concentrations of CPI-455 (Cat no. HY-100421, Medchemexpress, Princeton, NJ, U.S.A.) dissolved in DMSO. The medium was replaced every 2 days. Cells for western blot and immunostaining were cultured for 4 days after treatment with CPI-455. Cells for RT-qPCR and ChIP-qPCR were cultured for 3 days after treatment with CPI-455.
Immunocytochemistry was performed as previously reported (Faseb J 2018, 32 (2), 1108-1119). Specifically, the cells were fixed in 4% paraformaldehyde solution (Cat no. P231, Biosesang, Seongnam, South Korea) for 30 minutes. The cells were blocked with 5% goat serum (Cat no. S26, Millipore) diluted in 0.2% Triton X-100 (Cat no. 0694-1L, VWR International, Radnor, PA, U.S.A.).
The cells were stained for 1 hour with the following primary antibodies: TUBB3 (1:1000; Cat no. T5076, Sigma-Aldrich) and GFAP (1:500; Cat no. Z0334, Dako, Santa Clara, CA, U.S.A.). Next, the following secondary antibodies were applied for 30 minutes: Alexa488 goat anti-mouse IgG (1:1000; Cat no. A21131, Invitrogen, Waltham, MA, U.S.A.) and Cy3 goat anti-rabbit IgG (1:1000; Cat no. 111-165-144, Jackson, West Grove, PA, U.S.A.).
The nuclei were stained by treating the cells with 0.01% DAPI (4′,6-diamidino-2-phenylindole) (Cat No. D9542, Sigma-Aldrich) in PBS solution for 5 minutes. Fluorescent images were captured using a Leica DM IL inverse fluorescent microscope and LAS X software (Leica, Wetzlar, Germany).
NSCs proliferate in the presence of an epidermal growth factor (EGF) and […] growth factor-2 (FGF2), and in the absence of growth factors in a medium, NSCs differentiate into neurons and astrocytes. […]

STAT3 = assay: Western blot of STAT3 expression and phosphorylation in neural stem cells; settings: 50 μM, 4 days, FIG. 3A
Method: as §1
Chemiluminescence was detected on CP-BU new film (Agfa, Mortsel, Belgium) using western blotting luminol reagent (Cat no. sc-2048, Santa Cruz Biotechnology). Band intensity was quantified using ImageJ version 2.3.0. GAPDH (Glyceraldehyde-3-phosphate dehydrogenase) was measured as a housekeeping protein.

bmp2 mRNA = assay: RT-qPCR of il-6, lif, cntf and bmp2 mRNA in neural stem cells; settings: 3 days, FIG. 3B
Method: as §1, §3

lif mRNA = assay: RT-qPCR of lif mRNA in neural stem cells; settings: 3 days, CPI-455-induced astrocytogenesis
Method: as §1, §3

[1] = 50 μM, 4 days without EGF and FGF2, vs 0.1% DMSO, FIGS. 2A and 2B

SMILES: CC(C)c1c(-c2ccccc2)[nH]c2c(C#N)cnn2c1=O [CPI-455, 4,7-dihydro-6-(1-methylethyl)-7-oxo-5-phenyl-pyrazolo[1,5-a]pyrimidine-3-carbonitrile]
- GFAP protein expression compared to the control (GFAP): significantly increased
- TUBB3 protein expression (TUBB3): no significant change
- OLIG2 protein expression (OLIG2): no significant change
- gfap mRNA expression compared to the control (gfap mRNA): significantly increased
- number of GFAP-positive cells (neural stem cells (NSCs); [1]): significantly increased
- percentage of TUBB3-positive cells (neural stem cells (NSCs); [1]): did not show any significant difference
- number of DAPI-positive cells (neural stem cells (NSCs); 4 days without EGF and FGF2, vs 0.1% DMSO): No significant difference
- cytotoxicity during NSC differentiation (neural stem cells (NSCs); 4 days, inferred from DAPI-positive cell number): not inducing cytotoxicity
- phosphorylated STAT3 (pSTAT3) with respect to total STAT3 (STAT3): significantly increased
- bmp2 mRNA expression (bmp2 mRNA; 50 μM): significantly increased
- bmp2 mRNA among the investigated cytokines (il-6, lif, cntf, bmp2) (bmp2 mRNA; comparison with il-6, lif, cntf): only cytokine mRNA that showed a significant increase
- lif expression (lif mRNA): without an increase
